Assay results from patent US7868205B2, “Inhibitors of histone deacetylase” (MethylGene Inc., priority 2003, dated 2011).

Key:
[1] = biological target: human HDAC-1 (Homo sapiens, UniProt Q13547); experiment: Inhibition of histone deacetylase enzymatic (HDAC-1) activity; format: biochemical; settings: Table 6C
Method: The following protocol was used to assay the compounds of the invention.
The mixture was pre-incubated for 5 minutes at room temperature. The reaction was started by bringing the temperature to 37° C. and adding 16 μl substrate.

[2] = tested on: HCT116 human colon cancer cells; experiment: MTT assay, antiproliferative activity; format: cell-based; settings: HCT-116, 72 hours
Method: (§1) Table 6C provides data on inhibition of HDAC1 enzyme, on antiproliferative activities (HCT116 human colon cancer cells) of the compounds using 3-[4,5-dimethylthiazol-2-yl-2,5-diphenyltetrazolium]bromide (MTT) assay, as well as induction of p21^WAF1/Cip1 tumor suppressor gene.
Compounds at various concentrations were added to human colon cancer HCT116 cells plated in 96-well plates. Cells were incubated for 72 hours at 37° C. in 5% CO2 incubator. MTT (3-[4,5-dimethylthiazol-2-yl]-2,5 diphenyl tetrazolium bromide, Sigma) was added at a final concentration of 0.5 mg/ml and incubated with the cells for 4 hours before an equal volume of solubilization buffer (50% N,N-dimethylformamide, 20% SDS, pH 4.7) was added onto cultured cells. After overnight incubation, solubilized dye was quantified by colorimetric reading at […] using a reference at 630 nM. OD values were converted to cell numbers according to a standard growth curve of the relevant cell line. The concentration which reduces cell numbers to 50% of those of DMSO-treated cells is determined as MTT IC50,

[3] = tested on: p21^WAF1/Cip1 tumor suppressor gene; experiment: p21WAF1/Cip1 assay (p21 promoter-driven luciferase reporter); format: cell-based, human; settings: HCT116 cells with p21 promoter-driven luciferase, 16 hours; compared with MS-275
Method: as §1
HCT116 cells were stably transfected with reporter plasmids encoding the p21 promoter-driven luciferase. Cells were treated with indicated concentration of HDAC inhibitors for 16 hours before cells were harvested and luciferase activity analyzed. The effective concentration (EC) of MS-275 was designated as 1 uM. The ability of HDAC inhibitor was compared with that of MS-275 (T. Suzuki, et. al J. Med. Chem., 1999, 3001-3003).

[4] = tested on: HCT116 human colorectal carcinoma cells; experiment: Antineoplastic effects on human tumor xenografts in vivo, HCT116; settings: hct116 xenograft in mice, daily injection
Method: (§2) Eight to ten week old female BCDI mice (Taconic Labs, Great Barrington, N.Y.) were injected subcutaneously in the flank area with 2×10^6 preconditioned HCTI 16 human colorectal carcinoma cells, A549 human lung cancer, SW48 human colorectal cancer, A431 vulval caracinoma and colo205 human colorectal cancer. Preconditioning of these cells was done by a minimum of three consecutive tumor transplantations in the same strain of nude mice. Subsequently, tumor fragments of approximately 30 mgs were excised and implanted subcutaneously in mice, in the left flank area, under Forene anesthesia (Abbott Labs, Geneva, Switzerland). When the tumors reached a mean volume of 100 mm^3, the mice were treated intravenously, subcutaneously, or intraperitoneally by daily injection, with a solution of the histone deacetylase inhibitor in an appropriate vehicle, such as PBS, DMSO/water, or Tween 80/water, at a starting dose of 10 mg/kg. The optimal dose of the HDAC inhibitor was established by dose response experiments according to standard protocols. Tumor volume was calculated every second day post infusion according to standard methods (e.g., Meyer et al., Int. J. Cancer 43: 851-856 (1989)).

[5] = tested on: A431 vulval carcinoma; experiment: Antineoplastic effects on human tumor xenografts in vivo, A431; settings: A431 xenograft in mice, daily injection
Method: as §2

[6] = tested on: A549 human lung cancer; experiment: Antineoplastic effects on human tumor xenografts in vivo, A549; settings: A549 xenograft in mice, daily injection
Method: as §2

Chain of human HDAC-1 (Q13547 whole entry): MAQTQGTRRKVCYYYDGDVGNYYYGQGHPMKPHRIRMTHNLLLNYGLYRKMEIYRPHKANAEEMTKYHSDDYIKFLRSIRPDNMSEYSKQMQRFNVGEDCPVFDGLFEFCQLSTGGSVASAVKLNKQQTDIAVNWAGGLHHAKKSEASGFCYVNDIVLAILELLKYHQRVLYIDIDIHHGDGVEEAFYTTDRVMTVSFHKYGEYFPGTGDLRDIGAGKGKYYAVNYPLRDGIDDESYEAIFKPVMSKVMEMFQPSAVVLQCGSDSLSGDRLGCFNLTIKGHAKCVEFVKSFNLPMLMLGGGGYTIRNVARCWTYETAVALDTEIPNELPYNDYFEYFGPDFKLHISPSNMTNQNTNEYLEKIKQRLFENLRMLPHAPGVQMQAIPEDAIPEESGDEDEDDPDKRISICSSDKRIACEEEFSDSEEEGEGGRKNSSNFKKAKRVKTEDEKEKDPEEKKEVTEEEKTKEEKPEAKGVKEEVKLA

Row | IC50 [1] [µM] | IC50 [2] [µM] | SMILES | P21 (HCT116) μM, effective concentration (EC) for induction of p21 [3] | antineoplastic effects [4] | antineoplastic effects [5] | antineoplastic effects [6]
1 | < 1 | < 1 | Cc1nc2ccc(C(=O)Nc3cc(-c4cccs4)ccc3N)cc2o1 [286aa, N-(2-amino-5-(thiophen-2-yl)phenyl)-2-methylbenzo[d]oxazole-6-carboxamide] | b (1≦b≦20) | – | – | –
2 | < 1 | < 1 | Nc1ccc(-c2cccs2)cc1NC(=O)c1ccc2ncccc2c1 [258cc, N-(2-amino-5-(thiophen-2-yl)phenyl)quinoline-6-carboxamide] | b (1≦b≦20) | – | – | –
3 | < 1 | < 1 | Nc1ccc(-c2cccs2)cc1NC(=O)c1ccc(OC(=O)c2ccc(O)cc2)cc1 [258mm, 4-((2-amino-5-(thiophen-2-yl)phenyl)carbamoyl)phenyl 4-hydroxybenzoate] | b (1≦b≦20) | – | – | –
4 | – | < 1 | CC(=O)Nc1ccc(C(=O)Nc2cc(-c3cccs3)ccc2N)cc1 [258aa, 4-acetamido-N-(2-amino-5-(thiophen-2-yl)phenyl)benzamide] | b (1≦b≦20) | antineoplastic effects | antineoplastic effects | antineoplastic effects
5 | < 1 | < 1 | CN(C)CCOC(=O)Nc1ccc(C(=O)Nc2cc(-c3cccs3)ccc2N)cc1 [164cc, 2-(dimethylamino)ethyl 4-((2-amino-5-(thiophen-2-yl)phenyl)carbamoyl)phenylcarbamate] | b (1≦b≦20) | – | – | –
6 | < 1 | < 1 | COc1ccc(C(=O)Nc2cc(-c3cccs3)ccc2N)cc1 [258qq, N-(2-amino-5-(thiophen-2-yl)phenyl)-4-methoxybenzamide] | b (1≦b≦20) | – | – | –
7 | < 1 | 1 to 20 | Nc1ccc(-c2cccs2)cc1NC(=O)c1ccsc1 [258nn, N-(2-amino-5-(thiophen-2-yl)phenyl)thiophene-3-carboxamide] | b (1≦b≦20) | – | – | –
8 | < 1 | < 1 | Nc1ccc(-c2cccs2)cc1NC(=O)c1ccc(O)cc1 [258pp, N-(2-amino-5-(thiophen-2-yl)phenyl)-4-hydroxybenzamide] | b (1≦b≦20) | – | – | –
9 | < 1 | < 1 | Cc1cc(C)nc(N(C)c2ccc(C(=O)Nc3cc(-c4cccs4)ccc3N)cc2)n1 [258hh, N-(2-amino-5-(thiophen-2-yl)phenyl)-4-((4,6-dimethylpyrimidin-2-yl)(methyl)amino)benzamide] | b (1≦b≦20) | – | – | –
10 | < 1 | < 1 | Nc1ccc(-c2cccs2)cc1NC(=O)c1ccc(Cn2c(=O)[nH]c3ccccc3c2=O)cc1 [compound 349] | b (1≦b≦20) | – | – | –
